Here are results for four molecules from ChEMBL document CHEMBL1773033, “Cyclic lactam hybrid α-MSH/Agouti-related protein (AGRP) analogues with nanomolar range binding affinities at the human melanocortin receptors” (Bioorg Med Chem Lett, 2011).

Assay [1] addresses T1, Melanocortin receptor 3 (Homo sapiens, UniProt P41968). Kind of assay: Agonist activity at human MC3R expressed in HEK293 cells assessed as increase in intracellular cAMP level at 10 uM after 3 mins by luminescence counter relative to Ac-Nle-c[Asp-His-D-Phe-Arg-Trp-Lys]-NH2. The format is functional, cell-based. On the technique in general: cAMP levels reflect the balance of adenylyl cyclase and phosphodiesterase activity.

Assay [2] deals with T2, Melanocortin receptor 5 (Homo sapiens, UniProt P33032). Kind of assay: Agonist activity at human MC5R expressed in HEK293 cells assessed as intracellular cAMP accumulation. It is filed as functional, cell-based.
T2 sequence (P33032 whole entry): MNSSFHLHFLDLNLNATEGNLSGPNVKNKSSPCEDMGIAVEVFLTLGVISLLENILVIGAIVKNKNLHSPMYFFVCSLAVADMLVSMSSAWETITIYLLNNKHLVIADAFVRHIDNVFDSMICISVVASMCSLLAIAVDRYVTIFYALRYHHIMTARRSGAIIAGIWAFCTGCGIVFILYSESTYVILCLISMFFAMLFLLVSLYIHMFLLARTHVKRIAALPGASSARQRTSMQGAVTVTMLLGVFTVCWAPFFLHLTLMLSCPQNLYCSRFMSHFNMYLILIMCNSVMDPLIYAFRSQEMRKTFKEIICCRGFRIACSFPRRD
The target in assay [3] is T3, Melanocortin receptor 4 (Homo sapiens, UniProt P32245). The experiment in a line: Displacement of [125I]-NDP-alpha-MSH from human MC4R expressed in HEK293 cells after 40 mins by Wallac 1470 gamma counting. It is filed as cell-based. Background: Displacement assays read how much labelled ligand stays bound in the presence of the test substance.
T3 sequence (P32245 whole entry): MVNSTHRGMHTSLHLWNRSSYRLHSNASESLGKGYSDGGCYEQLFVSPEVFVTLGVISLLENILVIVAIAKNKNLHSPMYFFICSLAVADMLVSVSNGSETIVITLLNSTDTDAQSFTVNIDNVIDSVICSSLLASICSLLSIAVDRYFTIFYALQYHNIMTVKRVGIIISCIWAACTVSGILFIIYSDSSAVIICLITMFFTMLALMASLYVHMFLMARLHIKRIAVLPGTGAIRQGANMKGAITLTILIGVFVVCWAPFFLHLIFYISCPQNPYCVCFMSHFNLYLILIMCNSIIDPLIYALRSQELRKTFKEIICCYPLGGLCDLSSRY
The target in assay [4] is T4, Melanocyte-stimulating hormone receptor (Homo sapiens, UniProt Q01726). Kind of assay: Agonist activity at human MC1R expressed in HEK293 cells assessed as increase in intracellular cAMP level at 10 uM after 3 mins by luminescence counter relative to Ac-Nle-c[Asp-His-D-Phe-Arg-Trp-Lys]-NH2. It is filed as functional, cell-based.
Target sequence in this assay (Q01726 whole entry, looked up): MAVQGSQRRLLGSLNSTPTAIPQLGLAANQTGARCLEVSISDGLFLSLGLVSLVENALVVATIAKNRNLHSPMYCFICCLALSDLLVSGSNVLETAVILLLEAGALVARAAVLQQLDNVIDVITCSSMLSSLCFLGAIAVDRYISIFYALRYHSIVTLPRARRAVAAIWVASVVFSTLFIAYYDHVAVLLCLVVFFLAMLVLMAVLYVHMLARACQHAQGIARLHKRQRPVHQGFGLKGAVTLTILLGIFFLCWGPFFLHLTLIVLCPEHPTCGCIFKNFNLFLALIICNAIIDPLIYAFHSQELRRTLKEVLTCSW
The target of assay [5] is T1, Melanocortin receptor 3. The experiment in a line: Agonist activity at human MC3R expressed in HEK293 cells assessed as intracellular cAMP accumulation. The format is functional, cell-based.
Assay [6] concerns the target T3, Melanocortin receptor 4. The experiment in a line: Agonist activity at human MC4R expressed in HEK293 cells assessed as increase in intracellular cAMP level at 10 uM after 3 mins by luminescence counter relative to Ac-Nle-c[Asp-His-D-Phe-Arg-Trp-Lys]-NH2. It is filed as functional, cell-based.
Assay [7] has as its target T2, Melanocortin receptor 5. Kind of assay: Displacement of [125I]-NDP-alpha-MSH from human MC5R expressed in HEK293 cells after 40 mins by Wallac 1470 gamma counting. The format is cell-based.
Assay [8] concerns the target T2, Melanocortin receptor 5. The experiment in a line: Agonist activity at human MC5R expressed in HEK293 cells assessed as increase in intracellular cAMP level at 10 uM after 3 mins by luminescence counter relative to Ac-Nle-c[Asp-His-D-Phe-Arg-Trp-Lys]-NH2. The format is functional, cell-based.
Assay [9] concerns the target T4, Melanocyte-stimulating hormone receptor. Kind of assay: Displacement of [125I]-NDP-alpha-MSH from human MC1R expressed in HEK293 cells at 10 uM after 40 mins by Wallac 1470 gamma counting relative to Ac-Nle-c[Asp-His-D-Phe-Arg-Trp-Lys]-NH2. It is filed as cell-based.
Target sequence in this assay (Q01726 whole entry, looked up): as above
Assay [10] addresses T3, Melanocortin receptor 4. The experiment in a line: Agonist activity at human MC4R expressed in HEK293 cells assessed as intracellular cAMP accumulation. The format is functional, cell-based.
For assay [11], the target named is T2, Melanocortin receptor 5. The experiment in a line: Displacement of [125I]-NDP-alpha-MSH from human MC5R expressed in HEK293 cells at 10 uM after 40 mins by Wallac 1470 gamma counting relative to Ac-Nle-c[Asp-His-D-Phe-Arg-Trp-Lys]-NH2. The format is cell-based.
Assay [12] deals with T1, Melanocortin receptor 3. The experiment in a line: Displacement of [125I]-NDP-alpha-MSH from human MC3R expressed in HEK293 cells at 10 uM after 40 mins by Wallac 1470 gamma counting relative to Ac-Nle-c[Asp-His-D-Phe-Arg-Trp-Lys]-NH2. It is filed as cell-based.
Assay [13] concerns the target T3, Melanocortin receptor 4. Kind of assay: Displacement of [125I]-NDP-alpha-MSH from human MC4R expressed in HEK293 cells at 10 uM after 40 mins by Wallac 1470 gamma counting relative to Ac-Nle-c[Asp-His-D-Phe-Arg-Trp-Lys]-NH2. The format is cell-based.
Assay [14] has as its target T1, Melanocortin receptor 3. Kind of assay: Displacement of [125I]-NDP-alpha-MSH from human MC3R expressed in HEK293 cells after 40 mins by Wallac 1470 gamma counting. It is filed as cell-based.
In assay [15] the target is T4, Melanocyte-stimulating hormone receptor. Kind of assay: Displacement of [125I]-NDP-alpha-MSH from human MC1R expressed in HEK293 cells after 40 mins by Wallac 1470 gamma counting. The format is cell-based.
Target sequence in this assay (Q01726 whole entry): as the sequence (Q01726 whole entry, looked up) above
Assay [16] shares this target. Kind of assay: Agonist activity at human MC1R expressed in HEK293 cells assessed as increase in intracellular cAMP accumulation. It is filed as functional, cell-based.
Target sequence in this assay (Q01726 whole entry): as the sequence (Q01726 whole entry, looked up) above

Positions of bridges follow the written chain, without caps; N, C: chain ends. Non-standard residues stand in square brackets, D forms with d. Residues, ends and D or L forms follow the SMILES beside them. 2Nal = N[C@@H](Cc1ccc2ccccc2c1)C(=O)O

T1 sequence (P41968 whole entry): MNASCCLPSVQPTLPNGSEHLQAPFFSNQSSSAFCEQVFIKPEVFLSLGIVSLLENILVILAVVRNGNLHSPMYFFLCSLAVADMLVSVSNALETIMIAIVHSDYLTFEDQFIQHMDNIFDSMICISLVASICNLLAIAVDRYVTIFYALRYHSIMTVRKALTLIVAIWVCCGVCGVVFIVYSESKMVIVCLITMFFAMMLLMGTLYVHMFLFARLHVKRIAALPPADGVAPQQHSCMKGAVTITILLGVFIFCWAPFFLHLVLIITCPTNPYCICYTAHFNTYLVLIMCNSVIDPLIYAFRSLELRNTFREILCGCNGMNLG

With `CC(=O)N[C@H]1CC(=O)NCCCC[C@@H](C(N)=O)NC(=O)[C@@H](CC(N)=O)NC(=O)[C@H](Cc2ccccc2)NC(=O)[C@H](Cc2c[nH]c3ccccc23)NC(=O)[C@H](CCCNC(=N)N)NC1=O` (Ac-DRWF[dN]K-NH2; lactam 1-6), the Activity (at Melanocortin receptor 3 [1]; in [4]; at Melanocortin receptor 4 [6]; on Melanocortin receptor 5 [8]; in [9]; at Melanocortin receptor 5 [11]) was 0% each time. Moreover, the Activity at Melanocortin receptor 3 [12] and at Melanocortin receptor 4 [13] was 0% throughout. Besides, the EC50 entry (on Melanocortin receptor 5 [2]; on Melanocortin receptor 3 [5]; on Melanocortin receptor 4 [10]; in assay [16]) was “Not Active” in each case. For the same molecule, the IC50 result (at Melanocortin receptor 4 [3]; at Melanocortin receptor 5 [7]; on Melanocortin receptor 3 [14]; in assay [15]) was “Not Active” each time.

For the molecule `C[C@@H]1NC(=O)[C@@H](CC(N)=O)NC(=O)[C@H](Cc2ccc3ccccc3c2)NC(=O)[C@H](Cc2c[nH]c3ccccc23)NC(=O)[C@H](CCCNC(=N)N)NC(=O)CC[C@@H](C(N)=O)NC(=O)[C@H](Cc2ccccc2)NC1=O` (RW[2Nal][dN]AFE-NH2; lactam N-7), the EC50 result (at Melanocortin receptor 5 [2]; at Melanocortin receptor 3 [5]; on Melanocortin receptor 4 [10]; in assay [16]) was “Not Active” in each case. Moreover, the IC50 result (on Melanocortin receptor 4 [3]; at Melanocortin receptor 5 [7]; at Melanocortin receptor 3 [14]; in [15]) was “Not Active” in each case. Further, the Activity (in assay [4]; on Melanocortin receptor 4 [6]; on Melanocortin receptor 5 [11]; on Melanocortin receptor 3 [12]) was 0% in each case.

In the case of `CC(=O)N[C@H]1CC(=O)NCCCC[C@@H](C(N)=O)NC(=O)[C@@H](CCC(N)=O)NC(=O)[C@H](Cc2ccccc2)NC(=O)[C@H](Cc2c[nH]c3ccccc23)NC(=O)[C@H](CCCNC(=N)N)NC1=O` (Ac-DRWF[dQ]K-NH2; lactam 1-6), the Activity (on Melanocortin receptor 3 [1]; in assay [4]; at Melanocortin receptor 4 [6]; at Melanocortin receptor 5 [8]; in [9]; at Melanocortin receptor 5 [11]) was 0% throughout. Also, the Activity at Melanocortin receptor 3 [12] and at Melanocortin receptor 4 [13] was 0% in each case. In addition, the EC50 entry (at Melanocortin receptor 5 [2]; on Melanocortin receptor 3 [5]; at Melanocortin receptor 4 [10]; in [16]) was “Not Active” each time. The IC50 entry (on Melanocortin receptor 4 [3]; at Melanocortin receptor 5 [7]; at Melanocortin receptor 3 [14]; in [15]) was “Not Active” each time.

As for `CC(=O)N[C@H]1CC(=O)NCCCC[C@@H](C(N)=O)NC(=O)[C@@H](CCCNC(=N)N)NC(=O)[C@H](Cc2ccccc2)NC(=O)[C@H](Cc2c[nH]c3ccccc23)NC(=O)[C@H](CCCNC(=N)N)NC1=O` (Ac-DRWF[dR]K-NH2; lactam 1-6), the Activity (at Melanocortin receptor 3 [1]; in assay [4]; at Melanocortin receptor 4 [6]; on Melanocortin receptor 5 [8]; in [9]; on Melanocortin receptor 5 [11]) was 0% each time. Further, the Activity on Melanocortin receptor 3 [12] and on Melanocortin receptor 4 [13] was 0% in each case. Further, the EC50 entry (on Melanocortin receptor 5 [2]; on Melanocortin receptor 3 [5]; on Melanocortin receptor 4 [10]; in [16]) was “Not Active” each time. In addition, the IC50 result (on Melanocortin receptor 4 [3]; on Melanocortin receptor 5 [7]; at Melanocortin receptor 3 [14]; in [15]) was “Not Active” in each case.
